Km data for 2 compounds are collected here from publication PMC7352507, “The Genome Analysis of Methylobacterium populi YC-XJ1 with Diverse Xenobiotics Biodegrading Capacity and Degradation Characteristics of Related Hydrolase” (International Journal of Molecular Sciences, 2020).

The subject of test [1] is T1, DEPH1.
T1 construct: full length, 280 aa, 29,714 Da, no signal peptide; pET-32a(+) BamHI/HindIII, Trx/His/S tags kept (about 48 kDa on SDS-PAGE); E. coli
The experiment in a line: residual substrate (HPLC or GC), Lineweaver-Burk. The format is biochemical, Methylorubrum populi. Particulars: 10 mM PBS pH 7.0, 25 °C; 500 µg enzyme; DEP 0.2-2.4 mM.

The test system of test [2] is T2, QPEH2.
T2 construct: full length, 367 aa, 39,840 Da, no signal peptide; pET-32a(+) BamHI/HindIII, fused tags (His/S stated; about 45 kDa on SDS-PAGE) kept; E. coli
The test is described as follows: HPLC of residual substrate, Lineweaver-Burk. Particulars: 10 mM PBS pH 7.0, 25 °C; 120 µg enzyme; QPE 0.2-2.4 mM. The format is biochemical, Methylorubrum populi.

Regarding `CCOC(=O)c1ccccc1C(=O)OCC` [diethyl phthalate], the Michaelis constant (Km) in test [1] worked out at 1.04 ± 0.27 mM.
As to `CCOC(=O)[C@@H](C)Oc1ccc(Oc2cnc3cc(Cl)ccc3n2)cc1` [quizalofop-p-ethyl], in test [2], the Km came out at 83.9 ± 30.3 µM.

Usually Km stands for the substrate concentration at which the rate is half of its maximum.
